Reference: patent US10085933B2, “Cosmetic use of an essential oil of Laserpitium siler L. for keratin materials” (L'OREAL, priority 2013, dated 2018)

Test system: dermal capillaries of normal human skin maintained alive
Assay: Vascular modulation (vasodilation/vasoconstriction) in a model of normal human skin maintained alive; histological morphometry of dermal capillaries
Format: cell-based
Conditions: 1 μM noradrenalin in culture medium, 48 hours organ culture; for percentage of dilated vessels (dilated capillaries): mean of six skin samples, control skin 74.8 ± 20.8; for mean area occupied by the lumen of the blood vessels (capillaries) in the dermis: control skin 153.6 ± 74.4
From the text: The object of this study is to analyse the effect on vascular modulation, namely vasodilation or vasoconstriction, of the essential oil of Laserpitium siler L. evaluated in a model of normal human skin maintained alive.
The analyses are histological by morphometric quantification of the calibre of the dermal capillaries and semi-quantitative evaluation of the oedema.
Fragments of normal human skin are obtained from a plastic surgery. They are placed in inserts, which are themselves positioned on culture wells. Culture medium specifically adapted to survival maintenance is added to the bottom of the wells, a passage being made by slow diffusion between the two compartments via a porous membrane (3 μm).
The second positive control consisted in adding 1 μM noradrenalin to the culture medium so as to obtain vasoconstriction of the dermal capillaries.
The essential oil of Laserpitium siler L. at the test concentrations dissolved in ethanol is added to the culture medium.
The skin fragments are then maintained in organ culture for 48 hours in an oven under a humid atmosphere, at 37° C. and in the presence of 5% CO2.
The skin fragments are fixed in Bouin liquid and included in paraffin. After staining with haemalum-eosin, two criteria are evaluated on the dermis: the oedema and the calibre of the capillaries.
After staining with haemalum-eosin, the vascular dilation is evaluated by counting the number of dilated blood vessels on the entire histological slice (16 fields at magnification 40). This number is carried over to the total number of blood vessels in order to calculate the percentage of dilated vessels.
Moreover, a morphometric analysis of the area (μm^2) occupied by the lumen of the blood vessels was performed in order to determine the mean area (μm^2) occupied in the dermis by the vessels.
A mean is calculated for each parameter from the results obtained on the six skin samples. The statistical analysis was performed via the “reduced deviation” Student test or paired-samples test, with a risk a of 5%.

In the case of `NC[C@H](O)c1ccc(O)c(O)c1` [noradrenalin], the “percentage of dilated vessels (dilated capillaries)” value is reported as 52.5 ± 20.6%, the “percentage of dilated vessels (dilated capillaries)” value (listed as Noradrenalin) is reported as 52.5% and the “mean area occupied by the lumen of the blood vessels (capillaries) in the dermis” value is reported as 93.7 ± 65.7 μm^2. The “mean area occupied by the lumen of the blood vessels (capillaries) in the dermis” value (listed as Noradrenalin) was 93.7 μm^2.
